In patent US20100298141A1, “SUBSTITUTED PYRIDINE N-OXIDE HERBICIDES” (E. I. DU PONT DE NEMOURS AND COMPANY, priority 2007, published 2010):

Tests used:
morningglory = assay: Test A pre-/postemergence greenhouse test; type: in vivo, Ipomoea spp.; details: for Plant response rating, Morningglory: 0 to 100 scale where 0 is no effect and 100 is complete control; for Morningglory plant response rating: 0 to 100 scale
Summary of the method: (§1)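 Test compounds in non-phytotoxic solvent with surfactant were applied as a preemergence soil spray to seeded loam/sand pots and, concurrently, postemergence to plants at 2–10 cm, one- to two-leaf stage. About ten days in greenhouse, then injury visually rated against untreated controls.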

redroot pigweed = assay: Test A pre-/postemergence greenhouse test; type: in vivo, Amaranthus retroflexus; details: for Plant response rating, Pigweed: 0 to 100 scale where 0 is no effect and 100 is complete control; for Pigweed plant response rating: 0 to 100 scale
Summary of the method: as §1

blackgrass = assay: Test C pre-/postemergence test; type: in vivo, Alopecurus myosuroides
Summary of the method: (§2)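 Compounds in a non-phytotoxic solvent with surfactant applied preemergence to seeded pots and, at the same time, postemergence to plants 2–18 cm tall (1- to 4-leaf stage). Paddy tests: pots flooded to 3 cm, compound applied into the water, depth held throughout.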

downy brome = assay: Test C pre-/postemergence test; type: in vivo, Bromus tectorum; details: for Plant response rating, Bromegrass, Downy: scale 0 to 100, 0 no effect, 100 complete control
Summary of the method: as §2

green foxtail = assay: Test C pre-/postemergence test; type: in vivo, Setaria viridis
Summary of the method: as §2

wild oat = assay: Test C pre-/postemergence test; type: in vivo, Avena fatua
Summary of the method: as §2

bermudagrass = assay: Test C pre-/postemergence test; type: in vivo, Cynodon dactylon
Summary of the method: as §2

cocklebur = assay: Test C pre-/postemergence test; type: in vivo, Xanthium strumarium
Summary of the method: as §2

woolly cupgrass = assay: Test C pre-/postemergence test; type: in vivo, Eriochloa villosa
Summary of the method: as §2

kochia = assay: Test C pre-/postemergence test; type: in vivo, Kochia scoparia
Summary of the method: as §2

lambsquarters = assay: Test C pre-/postemergence test; type: in vivo, Chenopodium album
From the text: Seeds of plant species selected from blackgrass (Alopecurus myosuroides), downy brome (Bromus tectorum), green foxtail (Setaria viridis), Italian ryegrass (Lolium multiflorum), wheat (Triticum aestivum), wild oat (Avena fatua), catchweed bedstraw (Galium aparine), Russian thistle (Salsola kali), […] (Cynodon dactylon), Surinam grass (Brachiaria decumbens), cocklebur (Xanthium strumarium), corn (Zea mays), crabgrass (Digitaria sanguinalis), woolly cupgrass (Eriochloa villosa), giant foxtail (Setaria faberii), Goosegrass (Eleusin indica), johnsongrass (Sorghum halepense), kochia (Kochia scoparia), lambsquarters (Chenopodium album), morningglory (Ipomoea coccinea), eastern black nightshade (Solanum ptycanthum), yellow nutsedge (Cyperus esculentus), pigweed (Amaranthus retroflexus), common ragweed (Ambrosia elation), soybean (Glycine max), common (oilseed) sunflower (Helianthus annuus), and velvetleaf (Abutilon theophrasti) were planted and treated preemergence with test chemicals formulated in a non-phytotoxic solvent mixture which included a surfactant. At the same time, plants selected from these crop and weed species and also winter barley (Hordeum vulgare), canarygrass (Phalaris minor), and chickweed (Stellaria media) were treated with postemergence applications of some of the test chemicals formulated in the same manner. Plants ranged in height from 2 to 18 cm (1- to 4-leaf stage) for postemergence treatments. […] At time of treatment, test pots were flooded to 3 cm above the soil surface, treated by application of test compounds directly to the paddy water, and then maintained at that water depth for the duration of the test. […] A dash (-) response means no test result.

yellow nutsedge = assay: Test C pre-/postemergence test; type: in vivo, Cyperus esculentus
Summary of the method: as §2

soybean = assay: Test C pre-/postemergence test; type: in vivo, Glycine max; details: for Plant response rating (0 to 100), Soybean / Plant response rating, Soybean: Postemergence; for Plant response rating, Soybean: scale 0 to 100, 0 no effect, 100 complete control
Summary of the method: as §2

rice = assay: Test C flooded paddy test; type: in vivo, Oryza sativa; details: Flood
Summary of the method: (§3)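 Ratings were visual and made relative to untreated controls after 13 to 15 greenhouse days.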

duck salad = assay: Test C flooded paddy test; type: in vivo, Heteranthera limosa; details: Flood
Summary of the method: as §3

[1] = Postemergence, 500 g ai/ha, 0 is no effect, 100 is complete control
[2] = Preemergence, 125 g ai/ha, 0 no effect, 100 complete control
[3] = 62 g ai/ha, Preemergence, scale 0 to 100
[4] = 125 g ai/ha, preemergence, scale 0 (no effect) to 100 (complete control)
[5] = Preemergence, 31 g ai/ha, scale 0 to 100 (0 no effect, 100 complete control)
[6] = preemergence, 250 g ai/ha, scale 0 (no effect) to 100 (complete control)
[7] = 62 g ai/ha, scale 0 to 100 (0 no effect, 100 complete control)
[8] = 250 g ai/ha, scale 0 to 100, 0 no effect, 100 complete control, 13 to 15 days
[9] = Postemergence, 62 g ai/ha, scale 0 to 100, 0 no effect, 100 complete control
[10] = Postemergence, 125 g ai/ha, scale 0 to 100, 0 no effect, 100 complete control
[11] = Postemergence, 250 g ai/ha, scale 0 to 100, 0 no effect, 100 complete control

SMILES: Cc1cc([S+]([O-])Cc2c(C(F)(F)F)nn(C)c2OCC(F)(F)F)[n+]([O-])cc1Cl (centres unmarked) [Compound 70]
- Plant response rating, Morningglory (morningglory; Postemergence, 125 g ai/ha): 30
- Morningglory plant response rating (morningglory; [1]): 70
- Morningglory plant response rating (morningglory; [2]): 30
- Plant response rating, Morningglory (morningglory; Preemergence, 500 g ai/ha): 100
- Plant response rating, Pigweed (redroot pigweed; Postemergence, 125 g ai/ha): 40
- Pigweed plant response rating (redroot pigweed; [1]): 80
- Pigweed plant response rating (redroot pigweed; [2]): 90
- Plant response rating, Pigweed (redroot pigweed; Preemergence, 500 g ai/ha): 100
- Blackgrass plant response rating (blackgrass; [3]): 100
- Blackgrass plant response rating (blackgrass; [4]): 100
- Plant response rating, Blackgrass (blackgrass; [5]): 100
- Blackgrass plant response rating (blackgrass; [6]): 100
- Bromegrass, Downy plant response rating (downy brome; [3]): 80
- Bromegrass, Downy plant response rating (downy brome; [4]): 100
- Bromegrass, Downy plant response rating (downy brome; [6]): 100
- Foxtail, Green plant response rating (green foxtail; [3]): 100
- Foxtail, Green plant response rating (green foxtail; [4]): 100
- Plant response rating, Foxtail, Green (green foxtail; [5]): 100
- Foxtail, Green plant response rating (green foxtail; [6]): 100
- Oat, Wild plant response rating (wild oat; [3]): 95
- Oat, Wild plant response rating (wild oat; [4]): 100
- Plant response rating, Oat, Wild (wild oat; [5]): 70
- Oat, Wild plant response rating (wild oat; [6]): 100
- Bermudagrass plant response rating (bermudagrass; 62 g ai/ha, Preemergence, scale 0 to 100 (0 no effect, 100 complete control)): 100
- Bermudagrass plant response rating (bermudagrass; [4]): 100
- Plant response rating, Bermudagrass (bermudagrass; [5]): 100
- Bermudagrass plant response rating (bermudagrass; [6]): 100
- Cocklebur plant response rating (cocklebur; [3]): 0
- Cocklebur plant response rating (cocklebur; [4]): 0
- Plant response rating, Cocklebur (cocklebur; [5]): 0
- Cocklebur plant response rating (cocklebur; [6]): 0
- Cupgrass, Woolly plant response rating (woolly cupgrass; [3]): 98
- Cupgrass, Woolly plant response rating (woolly cupgrass; [4]): 100
- Plant response rating, Cupgrass, Woolly (woolly cupgrass; [5]): 95
- Cupgrass, Woolly plant response rating (woolly cupgrass; [6]): 100
- Kochia plant response rating (kochia; [3]): 100
- Kochia plant response rating (kochia; [4]): 100
- Plant response rating, Kochia (kochia; [5]): 100
- Kochia plant response rating (kochia; [6]): 100
- Lambsquarters plant response rating (lambsquarters; [3]): 100
- Lambsquarters plant response rating (lambsquarters; [4]): 100
- Plant response rating, Lambsquarters (lambsquarters; [5]): 100
- Lambsquarters plant response rating (lambsquarters; [6]): 100
- Nutsedge, Yellow plant response rating (yellow nutsedge; [3]): 65
- Nutsedge, Yellow plant response rating (yellow nutsedge; [4]): 65
- Plant response rating, Nutsedge, Yellow (yellow nutsedge; [5]): 60
- Nutsedge, Yellow plant response rating (yellow nutsedge; [6]): 95
- Soybean plant response rating (soybean; [3]): 30
- Soybean plant response rating (soybean; [4]): 80
- Soybean plant response rating (soybean; [6]): 85
- Plant response rating, Rice (rice; [7]): 45
- Plant response rating, Rice (rice; [8]): 90
- Plant response rating, Ducksalad (duck salad; [7]): 85
- Plant response rating, Ducksalad (duck salad; [8]): 100

SMILES: CCn1nc(C(F)(F)F)c(C(C)S(=O)(=O)c2cccc[n+]2[O-])c1OCC(F)(F)F (centres unmarked) [Compound 69]
- Plant response rating, Morningglory (morningglory; Postemergence, 125 g ai/ha): 40
- Morningglory plant response rating (morningglory; [1]): 70
- Morningglory plant response rating (morningglory; [2]): 50
- Plant response rating, Morningglory (morningglory; Preemergence, 500 g ai/ha): 100
- Plant response rating, Pigweed (redroot pigweed; Postemergence, 125 g ai/ha): 30
- Pigweed plant response rating (redroot pigweed; [1]): 90
- Pigweed plant response rating (redroot pigweed; [2]): 70
- Plant response rating, Pigweed (redroot pigweed; Preemergence, 500 g ai/ha): 100
- Plant response rating (0 to 100), Blackgrass (blackgrass; Postemergence, 31 g ai/ha): 0
- Plant response rating, Blackgrass (blackgrass; [9]): 0
- Plant response rating, Blackgrass (blackgrass; [10]): 85
- Plant response rating, Blackgrass (blackgrass; [11]): 95
- Plant response rating (0 to 100), Bromegrass, Downy (downy brome; Postemergence, 31 g ai/ha): 0
- Plant response rating, Bromegrass, Downy (downy brome; Postemergence, 62 g ai/ha): 0
- Plant response rating, Bromegrass, Downy (downy brome; Postemergence, 125 g ai/ha): 10
- Plant response rating, Bromegrass, Downy (downy brome; Postemergence, 250 g ai/ha): 45
- Plant response rating (0 to 100), Foxtail, Green (green foxtail; Postemergence, 31 g ai/ha): 0
- Plant response rating, Foxtail, Green (green foxtail; [9]): 0
- Plant response rating, Foxtail, Green (green foxtail; [10]): 30
- Plant response rating, Foxtail, Green (green foxtail; [11]): 90
- Plant response rating (0 to 100), Oat, Wild (wild oat; Postemergence, 31 g ai/ha): 0
- Plant response rating, Oat, Wild (wild oat; [9]): 0
- Plant response rating, Oat, Wild (wild oat; [10]): 0
- Plant response rating, Oat, Wild (wild oat; [11]): 90
- Plant response rating (0 to 100), Bermudagrass (bermudagrass; Postemergence, 31 g ai/ha): 0
- Plant response rating, Bermudagrass (bermudagrass; [9]): 0
- Plant response rating, Bermudagrass (bermudagrass; [10]): 0
- Plant response rating, Bermudagrass (bermudagrass; [11]): 50
- Plant response rating (0 to 100), Cocklebur (cocklebur; Postemergence, 31 g ai/ha): 0
- Plant response rating, Cocklebur (cocklebur; [9]): 0
- Plant response rating, Cocklebur (cocklebur; [10]): 0
- Plant response rating, Cocklebur (cocklebur; [11]): 0
- Plant response rating (0 to 100), Cupgrass, Woolly (woolly cupgrass; Postemergence, 31 g ai/ha): 0
- Plant response rating, Cupgrass, Woolly (woolly cupgrass; [9]): 0
- Plant response rating, Cupgrass, Woolly (woolly cupgrass; [10]): 0
- Plant response rating, Cupgrass, Woolly (woolly cupgrass; [11]): 0
- Plant response rating (0 to 100), Kochia (kochia; Postemergence, 31 g ai/ha): 0
- Plant response rating, Kochia (kochia; [9]): 0
- Plant response rating, Kochia (kochia; [10]): 0
- Plant response rating, Kochia (kochia; [11]): 0
- Plant response rating (0 to 100), Lambsquarters (lambsquarters; Postemergence, 31 g ai/ha): 0
- Plant response rating, Lambsquarters (lambsquarters; [9]): 0
- Plant response rating, Lambsquarters (lambsquarters; [10]): 0
- Plant response rating, Lambsquarters (lambsquarters; [11]): 0
- Plant response rating (0 to 100), Nutsedge, Yellow (yellow nutsedge; Postemergence, 31 g ai/ha): 0
- Plant response rating, Nutsedge, Yellow (yellow nutsedge; [9]): 0
- Plant response rating, Nutsedge, Yellow (yellow nutsedge; [10]): 0
- Plant response rating, Nutsedge, Yellow (yellow nutsedge; [11]): 0
- Plant response rating (0 to 100), Soybean (soybean; 31 g ai/ha): 0
- Plant response rating (0 to 100), Soybean (soybean; 62 g ai/ha): 30
- Plant response rating, Soybean (soybean; 125 g ai/ha): 30
- Plant response rating, Soybean (soybean; 250 g ai/ha): 35
- Plant response rating, Rice (rice; [7]): 40
- Plant response rating, Rice (rice; [8]): 70
- Plant response rating, Ducksalad (duck salad; [7]): 70
- Plant response rating, Ducksalad (duck salad; [8]): 100
